According to patent US12673961B2 (Agios Pharmaceuticals, Inc., priority 2022, dated 2026):

molecular target: T1, human PAH with the R408W mutation (Homo sapiens, UniProt P00439, R408W); test: Cell Based Phenylalanine Flux Assay; conditions: A375 cells expressing human R408W PAH; 24 hrs with compound, then sepiapterin and 13C9,15N-Phenylalanine for 4 hours; 13C-Tyrosine by LC-MS; average where tested multiple times; read-out: AC50;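 further: Ten-point dose curve from 2-fold serial dilutions, run in duplicate at 0.5% DMSO final, tracer step used 20 µM sepiapterin and 800 µM labeled phenylalanine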
T1 construct: expressed in transfected cells
T1 sequence (P00439 1-452 R408W): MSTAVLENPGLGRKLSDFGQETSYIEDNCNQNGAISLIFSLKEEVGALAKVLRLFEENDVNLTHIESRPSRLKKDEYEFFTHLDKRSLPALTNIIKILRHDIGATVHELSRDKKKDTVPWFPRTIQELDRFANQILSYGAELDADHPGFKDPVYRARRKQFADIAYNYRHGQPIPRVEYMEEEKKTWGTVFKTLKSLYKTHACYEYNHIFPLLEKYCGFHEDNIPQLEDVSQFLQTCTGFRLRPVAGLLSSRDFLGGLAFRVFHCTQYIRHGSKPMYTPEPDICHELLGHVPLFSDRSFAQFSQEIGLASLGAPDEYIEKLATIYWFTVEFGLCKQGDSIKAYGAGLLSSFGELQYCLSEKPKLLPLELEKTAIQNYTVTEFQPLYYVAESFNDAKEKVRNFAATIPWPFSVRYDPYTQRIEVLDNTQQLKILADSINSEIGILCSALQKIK

**Q.** CC(C)(F)c1ncc(C(=O)N2CCc3[nH]cnc3[C@H]2c2cc3c(F)cccn3n2)o1 [Example 2064, (S)-(2-(2-fluoropropan-2-yl)oxazol-5-yl)(4-(4-fluoropyrazolo[1,5-a]pyridin-2-yl)-1,4,6,7-tetrahydro-5H-imidazo[4,5-c]pyridin-5-yl)methanone] was tested. Which AC50 did it give?
**A.** < 500 nM

**Q.** For Cc1c(-c2ncc(C(=O)N3CCc4[nH]cnc4[C@@H]3c3cc4c(C(F)F)cccn4n3)o2)cnn1C [Example 2069, (R)-(4-(4-(difluoromethyl)pyrazolo[1,5-a]pyridin-2-yl)-1,4,6,7-tetrahydro-5H-imidazo [4,5-c]pyridin-5-yl)(2-(1,5-dimethyl-1H-pyrazol-4-yl)oxazol-5-yl)methanone], which AC50 is on record?
**A.** > 5000 nM

**Q.** With Cc1cccc2cc([C@H]3c4nc[nH]c4CCN3C(=O)c3ocnc3C3CC3)nn12 [Example 2071, (R)-(4-cyclopropyloxazol-5-yl)(4-(7-methylpyrazolo[1,5-a]pyridin-2-yl)-1,4,6,7-tetrahydro-5H-imidazo[4,5-c]pyridin-5-yl)methanone] as the compound, how does the AC50 read?
**A.** > 5000 nM

**Q.** How did the AC50 turn out when Cc1cccn2nc([C@H]3c4nc[nH]c4CCN3C(=O)c3oc(-c4cnn(C)c4)nc3C3CC3)cc12 [Example 2075] was run?
**A.** 1000 to 5000 nM

**Q.** O=C(C1CCC1)N1CCc2[nH]cnc2[C@@H]1c1cc2c(F)cccn2n1 [Example 2081, (R)-cyclobutyl(4-(4-fluoropyrazolo[1,5-a]pyridin-2-yl)-1,4,6,7-tetrahydro-5H-imidazo[4,5-c]pyridin-5-yl)methanone] was tested. Which AC50 did it give?
**A.** > 5000 nM

**Q.** For Fc1ccc(-c2nnc(N3CCc4[nH]cnc4[C@@H]3c3cc4cccc(Cl)n4n3)o2)cc1 [Example 2087, (R)-2-(4-(7-chloropyrazolo [1,5-a]pyridin-2-yl)-1,4,6,7-tetrahydro-5H-imidazo [4,5-c]pyridin-5-yl)-5-(4-fluorophenyl)-1,3,4-oxadiazole], which AC50 is on record?
**A.** > 5000 nM

**Q.** For Fc1cccc(F)c1-c1nnc(N2CCc3[nH]cnc3[C@@H]2c2cc3cccc(Cl)n3n2)o1 [Example 2088, (R)-2-(4-(7-chloropyrazolo [1,5-a]pyridin-2-yl)-1,4,6,7-tetrahydro-5H-imidazo [4,5-c]pyridin-5-yl)-5-(2,6-difluorophenyl)-1,3,4-oxadiazole], which AC50 is on record?
**A.** > 5000 nM

**Q.** For Cc1cccc2cc([C@H]3c4nc[nH]c4CCN3c3nnc(-c4c(F)cccc4F)o3)nn12 [Example 2090, (R)-2-(2,6-difluorophenyl)-5-(4-(7-methylpyrazolo[1,5-a]pyridin-2-yl)-1,4,6,7-tetrahydro-5H-imidazo[4,5-c]pyridin-5-yl)-1,3,4-oxadiazole], which AC50 is on record?
**A.** > 5000 nM

**Q.** Which AC50 does the source give for Cc1cccc2cc([C@@H]3c4nc[nH]c4CCN3c3ccc(C(F)(F)F)cn3)nn12 [Example 2097, (S)-4-(7-methylpyrazolo [1,5-a]pyridin-2-yl)-5-(5-(trifluoromethyl)pyridin-2-yl)-4,5,6,7-tetrahydro-1H-imidazo[4,5-c]pyridine] here?
**A.** 500 to 1000 nM

**Q.** CC(C)(C)c1ncc(C(=O)N2CCc3[nH]cnc3[C@H]2c2cc3c(F)cccn3n2)o1 [Example 2100, (S)-(2-(tert-butyl)oxazol-5-yl)(4-(4-fluoropyrazolo[1,5-a]pyridin-2-yl)-1,4,6,7-tetrahydro-5H-imidazo[4,5-c]pyridin-5-yl)methanone] was tested. Which AC50 did it give?
**A.** < 500 nM

**Q.** With Cn1cc(-c2nc(C3CC3)c(C(=O)N3CCc4[nH]cnc4[C@H]3c3cc4c(C(F)F)cccn4n3)o2)cn1 [Example 2114, (S)-(4-cyclopropyl-2-(1-methyl-1H-pyrazol-4-yl)oxazol-5-yl)(4-(4-(difluoromethyl)pyrazolo[1,5-a]pyridin-2-yl)-1,4,6,7-tetrahydro-5H-imidazo[4,5-c]pyridin-5-yl)methanone] as the compound, how does the AC50 read?
**A.** 500 to 1000 nM

**Q.** How did the AC50 turn out when Cn1cc(-c2nc(C3CC3)c(C(=O)N3CCc4[nH]cnc4[C@H]3c3cc4c(C(F)(F)F)cccn4n3)o2)cn1 [Example 2116, (S)-(4-cyclopropyl-2-(1-methyl-1H-pyrazol-4-yl)oxazol-5-yl)(4-(4-(trifluoromethyl)pyrazolo[1,5-a]pyridin-2-yl)-1,4,6,7-tetrahydro-5H-imidazo[4,5-c]pyridin-5-yl)methanone] was run?
**A.** < 500 nM

**Q.** With Cn1cc(-c2nc(C3CC3)c(C(=O)N3CCc4[nH]cnc4[C@@H]3c3cc4c(C(F)(F)F)cccn4n3)o2)cn1 [Example 2117, (R)-(4-cyclopropyl-2-(1-methyl-1H-pyrazol-4-yl)oxazol-5-yl)(4-(4-(trifluoromethyl)pyrazolo[1,5-a]pyridin-2-yl)-1,4,6,7-tetrahydro-5H-imidazo[4,5-c]pyridin-5-yl)methanone] as the compound, how does the AC50 read?
**A.** 1000 to 5000 nM

**Q.** For Cc1cccn2nc([C@H]3c4nc[nH]c4CCN3C(=O)c3oc(-c4ccccn4)nc3C3CC3)cc12 [Example 2121, (R)-(4-cyclopropyl-2-(pyridin-2-yl)oxazol-5-yl)(4-(4-methylpyrazolo[1,5-a]pyridin-2-yl)-1,4,6,7-tetrahydro-5H-imidazo[4,5-c]pyridin-5-yl)methanone], which AC50 is on record?
**A.** 1000 to 5000 nM

**Q.** For O=C(c1oc(-c2ccccn2)nc1C1CC1)N1CCc2[nH]cnc2[C@H]1c1cc2c(C(F)(F)F)cccn2n1 [Example 2124, (S)-(4-cyclopropyl-2-(pyridin-2-yl)oxazol-5-yl)(4-(4-(trifluoromethyl)pyrazolo [1,5-a]pyridin-2-yl)-1,4,6,7-tetrahydro-5H-imidazo[4,5-c]pyridin-5-yl)methanone], which AC50 is on record?
**A.** < 500 nM

**Q.** With Cc1cccn2nc([C@@H]3c4nc[nH]c4CCN3c3ccccn3)cc12 [Example 2127, (S)-4-(4-methylpyrazolo [1,5-a]pyridin-2-yl)-5-(pyridin-2-yl)-4,5,6,7-tetrahydro-1H-imidazo[4,5-c]pyridine] as the compound, how does the AC50 read?
**A.** < 500 nM

**Q.** How did the AC50 turn out when FC(F)(F)c1ccc(N2CCc3[nH]cnc3[C@H]2c2cc3cccc(Cl)n3n2)nc1 [Example 2136, (S)-4-(7-chloropyrazolo [1,5-a]pyridin-2-yl)-5-(5-(trifluoromethyl)pyridin-2-yl)-4,5,6,7-tetrahydro-1H-imidazo[4,5-c]pyridine] was run?
**A.** < 500 nM

**Q.** CC(C)c1cccn2nc([C@@H]3c4nc[nH]c4CCN3c3nnc(C(F)(F)F)o3)cc12 [Example 2147, (S)-2-(4-(4-isopropylpyrazolo [1,5-a]pyridin-2-yl)-1,4,6,7-tetrahydro-5H-imidazo [4,5-c]pyridin-5-yl)-5-(trifluoromethyl)-1,3,4-oxadiazole] was tested. Which AC50 did it give?
**A.** < 500 nM

**Q.** CC(C)c1cccn2nc([C@@H]3c4nc[nH]c4CCN3c3ccc(C(F)(F)F)cn3)cc12 [Example 2148, (S)-4-(4-isopropylpyrazolo [1,5-a]pyridin-2-yl)-5-(5-(trifluoromethyl)pyridin-2-yl)-4,5,6,7-tetrahydro-1H-imidazo[4,5-c]pyridine] was tested. Which AC50 did it give?
**A.** < 500 nM

**Q.** How did the AC50 turn out when FC(F)Oc1cccn2nc([C@H]3c4nc[nH]c4CCN3c3nnc(C(F)(F)F)o3)cc12 [Example 2154, (R)-2-(4-(4-(difluoromethoxy)pyrazolo[1,5-a]pyridin-2-yl)-1,4,6,7-tetrahydro-5H-imidazo[4,5-c]pyridin-5-yl)-5-(trifluoromethyl)-1,3,4-oxadiazole] was run?
**A.** > 5000 nM

**Q.** Which AC50 does the source give for FC(F)Oc1cccn2nc([C@@H]3c4nc[nH]c4CCN3c3nnc(C(F)(F)F)o3)cc12 [Example 2155, (S)-2-(4-(4-(difluoromethoxy)pyrazolo[1,5-a]pyridin-2-yl)-1,4,6,7-tetrahydro-5H-imidazo[4,5-c]pyridin-5-yl)-5-(trifluoromethyl)-1,3,4-oxadiazole] here?
**A.** < 500 nM

**Q.** Fc1cccn2nc([C@@H]3c4nc[nH]c4CCN3c3nnc(-c4cnccn4)o3)cc12 [Example 2159, (S)-2-(4-(4-fluoropyrazolo [1,5-a]pyridin-2-yl)-1,4,6,7-tetrahydro-5H-imidazo[4,5-c]pyridin-5-yl)-5-(pyrazin-2-yl)-1,3,4-oxadiazole] was tested. Which AC50 did it give?
**A.** 500 to 1000 nM

**Q.** For Clc1cccn2nc([C@H]3c4nc[nH]c4CCN3c3nnc(-c4cnccn4)o3)cc12 [Example 2160, (R)-2-(4-(4-chloropyrazolo [1,5-a]pyridin-2-yl)-1,4,6,7-tetrahydro-5H-imidazo[4,5-c]pyridin-5-yl)-5-(pyrazin-2-yl)-1,3,4-oxadiazole], which AC50 is on record?
**A.** > 5000 nM

**Q.** For Clc1cccn2nc([C@@H]3c4nc[nH]c4CCN3c3nnc(-c4cnccn4)o3)cc12 [Example 2161, (S)-2-(4-(4-chloropyrazolo [1,5-a]pyridin-2-yl)-1,4,6,7-tetrahydro-5H-imidazo[4,5-c]pyridin-5-yl)-5-(pyrazin-2-yl)-1,3,4-oxadiazole], which AC50 is on record?
**A.** < 500 nM

**Q.** FC(F)c1nnc(N2CCc3[nH]cnc3[C@H]2c2cc3c(C4CC4)cccn3n2)o1 [Example 2167] was tested. Which AC50 did it give?
**A.** < 500 nM

**Q.** CC(C)c1cccn2nc([C@H]3c4nc[nH]c4CCN3c3nnc(-c4cnccn4)o3)cc12 [Example 2176, (R)-2-(4-(4-isopropylpyrazolo [1,5-a]pyridin-2-yl)-1,4,6,7-tetrahydro-5H-imidazo [4,5-c]pyridin-5-yl)-5-(pyrazin-2-yl)-1,3,4-oxadiazole] was tested. Which AC50 did it give?
**A.** > 5000 nM

**Q.** With CC(C)c1cccn2nc([C@@H]3c4nc[nH]c4CCN3c3nnc(-c4cnccn4)o3)cc12 [Example 2177, (S)-2-(4-(4-isopropylpyrazolo [1,5-a]pyridin-2-yl)-1,4,6,7-tetrahydro-5H-imidazo [4,5-c]pyridin-5-yl)-5-(pyrazin-2-yl)-1,3,4-oxadiazole] as the compound, how does the AC50 read?
**A.** 500 to 1000 nM

**Q.** Fc1cccn2nc([C@@H]3c4nc[nH]c4CCN3c3nnc(-c4ccncn4)o3)cc12 [Example 2178, (S)-2-(4-(4-fluoropyrazolo [1,5-a]pyridin-2-yl)-1,4,6,7-tetrahydro-5H-imidazo[4,5-c]pyridin-5-yl)-5-(pyrimidin-4-yl)-1,3,4-oxadiazole] was tested. Which AC50 did it give?
**A.** 500 to 1000 nM
